The numbers were not newly measured in patent publication US20080176893A1, “Formulation of a Thienopyridine Platelet Aggregation Inhibitor” (ELI LILLY AND COMPANY, priority 2005, published 2008), which cites them from elsewhere.

Regarding `CC(=O)Oc1cc2c(s1)CCN(C(C(=O)C1CC1)c1ccccc1F)C2.Cl` (stereo not drawn) [Prasugrel, 2-Acetoxy-5-(α-cycloprpylcarbonyl-2-fluorobenzyl)-4,5,6,7-tetrahydrothieno[3,2-c]pyridine], the “degradation on prolonged exposure to air and moisture” value is reported as “some degradation”.
